Data taken from ChEMBL document CHEMBL1146403, “Three new cryptophycins from Nostoc sp. GSV 224” (J Nat Prod, 1997).

Tests used:
Assay type in all cases: functional, cell-based
SK-OV-3 = assay: Cytotoxicity against human SKOV3 cells
LoVo = assay: Cytotoxicity against human LoVo cells
KB = assay: Cytotoxicity against human KB cells

| Compound | IC50 (SK-OV-3) | IC50 (LoVo) | IC50 (KB) |
| --- | --- | --- | --- |
| COc1ccc(C[C@H]2NC(=O)/C=C/C[C@@H]([C@H](C)/C=C/c3ccccc3)OC(=O)[C@H](CC(C)C)OC(=O)[C@H](C)CNC2=O)cc1Cl [CRYPTOPHYCIN 3] | 1.9 nM | 1.9 nM | 1.9 nM |
| COc1ccc(C[C@@H]2NC(=O)/C=C/C[C@@H]([C@H](C)/C=C/c3ccccc3)OC(=O)[C@H](CC(C)C)OC(=O)[C@H](C)CNC2=O)cc1Cl [CRYPTOPHYCIN 46] | 750 nM | 750 nM | 750 nM |
| COc1c(Cl)cc(C[C@H]2NC(=O)/C=C/C[C@@H]([C@H](C)/C=C/c3ccccc3)OC(=O)[C@H](CC(C)C)OC(=O)[C@H](C)CNC2=O)cc1Cl [CRYPTOPHYCIN 175] | 100 nM | 100 nM | 100 nM |
| CC(C)C[C@@H]1OC(=O)CCNC(=O)[C@@H](Cc2ccc(O)c(Cl)c2)NC(=O)/C=C/C[C@@H]([C@H](C)[C@H]2O[C@@H]2c2ccccc2)OC1=O [CRYPTOPHYCIN 176] | 1.3 nM | 1.3 nM | 1.3 nM |
| COc1ccc(C[C@H]2NC(=O)/C=C/C[C@@H]([C@H](C)[C@H]3O[C@@H]3c3ccccc3)OC(=O)[C@H](CC(C)C)OC(=O)[C@H](C)CNC2=O)cc1Cl [CRYPTOPHYCIN A] | 0.0092 nM | 0.0092 nM | 0.0092 nM |
